Experimental data from PubChem BioAssay AID330 (DTP/NCI, 2004).
Where “and” joins values, the source holds several entries; their conditions need not be identical. Equal values may be shown once. Toxic doses and inconclusive results are not listed. The calls were made as follows: active = survival T/C of 150% or more; inactive = T/C below 125% in these data.

System: P388 leukemia ip, CD2F1 mice, survival T/C
Assay: NCI In Vivo Anticancer Drug Screen. Data for tumor model P388 Leukemia (intraperitoneal) in CD2F1 (CDF1) mice
Conditions: endpoint: median survival time, higher = longer survival
How it was run: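 Mice carrying the transplanted tumor received test compound or vehicle. Survival was recorded in each group, and the value is the treated-group measurement divided by that of the vehicle-treated control group.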

[1] = dose: 60.0 mg/kg/injection, schedule: Q01DX005 (ip), vehicle: saline with Tween-80
[2] = dose: 120.0 mg/kg/injection, schedule: Q01DX005 (ip), vehicle: saline with Tween-80
[3] = dose: 50.0 mg/kg/injection, schedule: Q01DX005 (ip), vehicle: saline with Tween-80
[4] = dose: 100.0 mg/kg/injection, schedule: Q01DX005 (ip), vehicle: saline with Tween-80
[5] = dose: 200.0 mg/kg/injection, schedule: Q01DX005 (ip), vehicle: saline with Tween-80
[6] = dose: 100.0 mg/kg/injection, schedule: Q04DX003 (ip), vehicle: saline
[7] = dose: 200.0 mg/kg/injection, schedule: Q04DX003 (ip), vehicle: saline
[8] = dose: 50.0 mg/kg/injection, schedule: Q01DX005 (ip), vehicle: Klucel (hydroxypropylcellulose) (HPC)
[9] = dose: 100.0 mg/kg/injection, schedule: Q01DX005 (ip), vehicle: Klucel (hydroxypropylcellulose) (HPC)
[10] = dose: 200.0 mg/kg/injection, schedule: Q01DX005 (ip), vehicle: Klucel (hydroxypropylcellulose) (HPC)

Measured: T/C

NNc1ncc(S(=O)(=O)Cc2ccc3c(c2)OCO3)c(N)n1
inactive: dose: 100.0 mg/kg/injection, schedule: Q01DX001 (ip), vehicle: saline 101 % of control | dose: 200.0 mg/kg/injection, schedule: Q01DX001 (ip), vehicle: saline 98 % of control | dose: 400.0 mg/kg/injection, schedule: Q01DX001 (ip), vehicle: saline 98 % of control

O=C1OC2=CC=CC=CC2C12C1C=CC=CC12 (stereo unspecified)
inactive: dose: 50.0 mg/kg/injection, schedule: Q01DX009 (ip), vehicle: saline with Tween-80 100 % of control | dose: 100.0 mg/kg/injection, schedule: Q01DX009 (ip), vehicle: saline with Tween-80 105 % of control | dose: 200.0 mg/kg/injection, schedule: Q01DX009 (ip), vehicle: saline with Tween-80 104 % of control

COC(=O)c1nc(N)nc(C(=O)OC)c1C(=O)c1cc(Cl)ccc1Cl
inactive: [1] 100 % of control | [2] 100 % of control

Cc1nn(C(=S)S)c(C)c1N=Nc1cccc(F)c1
inactive: [3] 117 % of control | [4] 111 % of control | [5] 106 % of control

Nc1nc2[nH]c(=O)c(=O)[nH]c2c(=O)[nH]1
inactive: dose: 50.0 mg/kg/injection, schedule: Q04DX003 (ip), vehicle: Klucel (hydroxypropylcellulose) (HPC) 96 % of control | dose: 100.0 mg/kg/injection, schedule: Q04DX003 (ip), vehicle: Klucel (hydroxypropylcellulose) (HPC) 97 % of control | dose: 200.0 mg/kg/injection, schedule: Q04DX003 (ip), vehicle: Klucel (hydroxypropylcellulose) (HPC) 94 % of control | dose: 400.0 mg/kg/injection, schedule: Q04DX003 (ip), vehicle: Klucel (hydroxypropylcellulose) (HPC) 105 % of control

C=C(C)/C([O-])=N/[N+](C)(C)CC(O)CCCCCCCCCCCC (stereo unspecified)
inactive: dose: 1.25 mg/kg/injection, schedule: Q01DX009 (ip), vehicle: Klucel (hydroxypropylcellulose) (HPC) 104 % of control | dose: 2.5 mg/kg/injection, schedule: Q01DX005 (ip), vehicle: Klucel (hydroxypropylcellulose) (HPC) 100 % of control | dose: 2.5 mg/kg/injection, schedule: Q01DX009 (ip), vehicle: Klucel (hydroxypropylcellulose) (HPC) 96 % of control | dose: 5.0 mg/kg/injection, schedule: Q01DX005 (ip), vehicle: Klucel (hydroxypropylcellulose) (HPC) 101 % of control | dose: 10.0 mg/kg/injection, schedule: Q01DX005 (ip), vehicle: Klucel (hydroxypropylcellulose) (HPC) 100 % of control | dose: 10.0 mg/kg/injection, schedule: Q01DX009 (ip), vehicle: Klucel (hydroxypropylcellulose) (HPC) 91 % of control | dose: 20.0 mg/kg/injection, schedule: Q01DX005 (ip), vehicle: Klucel (hydroxypropylcellulose) (HPC) 101 % of control | dose: 40.0 mg/kg/injection, schedule: Q01DX005 (ip), vehicle: Klucel (hydroxypropylcellulose) (HPC) 92 % of control

COc1ccc(OC)c(/C=C2/C(=O)ON=C2C)c1
inactive: [1] 114 % of control | [2] 111 % of control

CCN(CC)CCNC(=O)C(O)C1CCCCC1 (stereo unspecified)
inactive: [1] 99 % of control | [2] 99 % of control

CCN(Cc1c(C)[nH]c2ccc(N(C)C)cc2c1=O)Cc1c(C)[nH]c2ccc(N(C)C)cc2c1=O
inactive: dose: 50.0 mg/kg/injection, schedule: Q01DX009 (ip), vehicle: saline 101 % of control | dose: 100.0 mg/kg/injection, schedule: Q01DX009 (ip), vehicle: saline 101 % of control | dose: 200.0 mg/kg/injection, schedule: Q01DX009 (ip), vehicle: saline 106 % of control

COc1cc(/C=C/[N+](=O)[O-])cc(Br)c1O
inactive: dose: 30.0 mg/kg/injection, schedule: Q01DX005 (ip), vehicle: saline with Tween-80 119 % of control | [1] 110 % of control and 113 % of control | [2] 102 % of control and 122 % of control

OCCN1CCC2(CC1)SSC1(CCN(CCO)CC1)S2
inactive: dose: 50.0 mg/kg/injection, schedule: Q04DX003 (ip), vehicle: saline 100 % of control | [6] 100 % of control | [7] 100 % of control

CC(C)c1ccc(OC(=N)c2ccccc2)cc1
inactive: dose: 100.0 mg/kg/injection, schedule: Q04DX003 (ip), vehicle: saline with Tween-80 98 % of control | dose: 200.0 mg/kg/injection, schedule: Q04DX003 (ip), vehicle: saline with Tween-80 100 % of control | dose: 400.0 mg/kg/injection, schedule: Q04DX003 (ip), vehicle: saline with Tween-80 89 % of control

COc1cc(C(=O)Nc2cccc(Cl)c2Cl)cc(OC)c1OC
inactive: [8] 104 % of control | [9] 96 % of control | [10] 92 % of control

O=C(O)C1CCCC2C(O)CCC(=O)C12 (stereo unspecified)
inactive: [6] 105 % of control | [7] 110 % of control | dose: 400.0 mg/kg/injection, schedule: Q04DX003 (ip), vehicle: saline 105 % of control

C=C1C(=O)OC2C1CCC1(C)CC(Br)C(=O)C(C)C21 (stereo unspecified)
inactive: dose: 50.0 mg/kg/injection, schedule: Q04DX002 (ip), vehicle: saline with Tween-80 104 % of control and 108 % of control and 95 % of control | dose: 100.0 mg/kg/injection, schedule: Q04DX002 (ip), vehicle: saline with Tween-80 100 % of control and 111 % of control and 112 % of control | dose: 200.0 mg/kg/injection, schedule: Q04DX002 (ip), vehicle: saline with Tween-80 106 % of control and 108 % of control | dose: 400.0 mg/kg/injection, schedule: Q04DX002 (ip), vehicle: saline with Tween-80 104 % of control

O=C1c2ccc(=O)[nH]c2C(=O)C2CC3=C(CCCC3)CC12 (stereo unspecified)
inactive: [3] 109 % of control | [4] 97 % of control | [5] 94 % of control

COc1c2c(c3c(c1CCC(=O)O)OC(C)(C)C=C3)OC(C)(C)C=C2
inactive: [8] 102 % of control | [9] 100 % of control | [10] 102 % of control

COc1cc(C2c3cc4c(cc3OC(C)(OC)C2C)OCO4)cc(OC)c1OC (stereo unspecified)
inactive: dose: 1.8 mg/kg/injection, schedule: Q01DX005 (ip), vehicle: saline 103 % of control | dose: 3.75 mg/kg/injection, schedule: Q01DX005 (ip), vehicle: saline 98 % of control | dose: 7.5 mg/kg/injection, schedule: Q01DX005 (ip), vehicle: saline 93 % of control | dose: 15.0 mg/kg/injection, schedule: Q01DX005 (ip), vehicle: saline 91 % of control | dose: 30.0 mg/kg/injection, schedule: Q01DX005 (ip), vehicle: saline 89 % of control | dose: 60.0 mg/kg/injection, schedule: Q01DX005 (ip), vehicle: saline 102 % of control and 86 % of control | dose: 120.0 mg/kg/injection, schedule: Q01DX005 (ip), vehicle: saline 86 % of control | dose: 240.0 mg/kg/injection, schedule: Q01DX005 (ip), vehicle: saline 92 % of control

COc1c2c(c(N3CCCC3)c3c1C(=O)c1ccccc1C3=O)C(=O)CCC2
inactive: dose: 100.0 mg/kg/injection, schedule: Q01DX001 (ip), vehicle: saline with Tween-80 100 % of control | dose: 200.0 mg/kg/injection, schedule: Q01DX001 (ip), vehicle: saline with Tween-80 105 % of control | dose: 400.0 mg/kg/injection, schedule: Q01DX001 (ip), vehicle: saline with Tween-80 94 % of control

CC(=O)OC1=C2C(C)(C)OC3CC(=O)OCC23C2CCC3(C)C(c4ccoc4)OC(=O)C4OC43C2(C)C1=O (stereo unspecified)
inactive: dose: 0.5 mg/kg/injection, schedule: Q01DX009 (ip), vehicle: saline + alcohol 113 % of control | dose: 1.0 mg/kg/injection, schedule: Q01DX009 (ip), vehicle: saline + alcohol 110 % of control | dose: 2.0 mg/kg/injection, schedule: Q01DX009 (ip), vehicle: saline + alcohol 107 % of control | dose: 4.0 mg/kg/injection, schedule: Q01DX009 (ip), vehicle: saline + alcohol 101 % of control

Cc1cccc(C(O)(c2cccc(C)c2)C2(O)CCN(C)CC2)c1
inactive: dose: 25.0 mg/kg/injection, schedule: Q01DX005 (ip), vehicle: Klucel (hydroxypropylcellulose) (HPC) 98 % of control | [8] 98 % of control | [9] 102 % of control

COP(=O)(CCC1OCCO1)OC
inactive: [3] 104 % of control | [4] 104 % of control | [5] 99 % of control
